According to patent US9101640B2, “Use of Danshensu, Notoginsenoside R1 or their combination in preparation of medicaments for preventing and treating diseases caused by microcirculation disorder” (Tasly Pharmaceutical Group Co., Ltd., priority 2009, dated 2015):
Entries after “also recorded” stand apart in the source; their conditions may differ.

Tests used:
Format in all cases: in vivo
Conditions in all cases: rat mesenteric I/R
[1] = test system: leukocytes adhered to the mesenteric venules; assay: Counting of leukocytes adhered to venular walls after I/R
Method: (§1) The rats were anesthetized by intraperitoneal injection of pentobarbital sodium (30 mg/kg body weight (BW)). PE venous cannulas (#3) were cannulated into the right jugular of the rats and detained. The abdomen of each rat was incised in a length of 20-30 mm along the midline. The ileum near the ileocecal junctions was gently taken out and unfolded onto the object stage mounted with glass slides. The unfolded mesenteries were continuously dripped with Krebs-Ringer buffering solution at 37° C. The microcirculatory dynamics of the mesenteries was observed under white light (12V, 100 W) using an inverted biomicroscope (Diaphot TMD-2S, Nikon, Tokyo) placed in the thermostat at 37° C. Observation sites were selected under 20× object lens, and a video recording system with a time-displaying function was used to record what had been observed on S-VHS tape and preserved. […] Normal saline was administrated at 20 min before ischemia until the end of the observation by continuously intravenous drip via jugular at a dosage of 5 mg/kg/h. PE cannulas were used to ligate non-circulatory mesenteric arteries and veins, so as to observe the arteries and veins for 10 min, and then the ligation was lifted. Time was adjusted to zero and the microcirculatory dynamics under the same visual field was continuously observed for 60 min.
(§2) DLA was administrated at 20 min before ischemia until the end of the observation by continuously intravenous drip via jugular at a dosage of 5 mg/kg/h.
(§3) R1 was administrated at 20 min before ischemia until the end of the observation by continuously intravenous drip via jugular at a dosage of 5 mg/kg/h.
(§4) The combination of DLA and R1 in a weight ratio of 4:1 was administrated at 20 min before ischemia until the end of the observation by continuously intravenous drip via jugular at a dosage of 5 mg/kg/h.
(§5) The combination of DLA and R1 in a weight ratio of 1:1 was administrated at 20 min before ischemia until the end of the observation by continuously intravenous drip via jugular at a dosage of 5 mg/kg/h. […]
(§6) Wherein, 6 rats in each group were taken out, these rats were used for observing the following aspects: the venular diameters; leukocytes rolling, adhesion, and emigration and DHR fluorescence intensities of the venular walls. […]
(§7) Microcirculatory dynamics was continuously recorded using an inverted biomicroscope […] recording system (CC-090, Flovel, Tokyo) and SIT fluorescent camera (C-2400-08, Hamamatsu Photonics, Hamamatsu).
The leukocytes adhered to the venules which stayed at one site on the venular walls for at least 30 s the adherent leukocytes) was counted from the replayed images at the following time points: before ischemia, and 1 min, 10 min, 20 min, 30 min, 40 min, 50 min and 60 min after the beginning of the reperfusion. […]

[2] = test system: leukocytes emigrated from the mesenteric venules; assay: Counting of leukocytes emigrated from venules after I/R
Method: as §1, §2, §3, §4, §5, §6, §7
The number of the leukocytes emigrated from the mesenteric venules was observed and counted from the replayed images at the following time points: before ischemia, and 1 min, 10 min, 20 min, 30 min, 40 min, 50 min and 60 min after the beginning of the reperfusion.

[3] = test system: peroxides in the mesenteric venular walls; assay: DHR fluorescence intensities of venular walls (production of peroxides) after I/R
Method: The rats were anesthetized by intraperitoneal injection of pentobarbital sodium (30 mg/kg body weight (BW)). PE venous cannulas (#3) were cannulated into the right jugular of the rats and detained. The abdomen of each rat was incised in a length of 20-30 mm along the midline. The ileum near the ileocecal junctions was gently taken out and unfolded onto the object stage mounted with glass slides. The unfolded mesenteries were continuously dripped with Krebs-Ringer buffering solution at 37° C. The microcirculatory dynamics of the mesenteries was observed under white light (12V, 100 W) using an inverted biomicroscope (Diaphot TMD-2S, Nikon, Tokyo) placed in the thermostat at 37° C. Observation sites were selected under 20× object lens, and a video recording system with a time-displaying function was used to record what had been observed on S-VHS tape and preserved. […] PE cannulas were used to ligate non-circulatory mesenteric arteries and veins, so as to observe the arteries and veins for 10 min, and then the ligation was lifted. Time was adjusted to zero and the microcirculatory dynamics under the same visual field was continuously observed for 60 min. […]
DLA was administrated at 10 min after I/R until the end of the observation by continuously intravenous drip via jugular at a dosage of 5 mg/kg/h. […]
as §6, §7
The H2O2-sensitive fluorescent probes DHR ([…]) were continuously dripped onto the surfaces of the rat's mesenteries to be observed. An inverted fluorescence microscope (DM-IRB, Leica, Germany) with an excitation wavelength at 455 nm and a mercury lamp as an excitation source (100 W) was used. The images were recorded with a CD camera at the following time points: before ischemia, and 1 min, 10 min, 20 min, 30 min, 40 min, 50 min and 60 min after the beginning of the reperfusion. The fluorescence intensities of the venular wall and the extravascular interstitial substance were measured with a Image-Pro Plus 5.0 software. The […] value between the fluorescence intensity of the venular wall and that of the extravascular interstitial substance before ischemia was taken as a baseline. The ratio of the changing value at each time point to the baseline were calculated, which was used to indicate the changing rate of the DHR fluorescence intensities of the rat's mesenteric venular walls.

[4] = post-administration, 5 mg/kg/h continuous i.v. drip from 20 min after ischemia (DLA: 10 min after I/R)
[5] = pre-administration, 5 mg/kg/h continuous i.v. drip from 20 min before ischemia

Row | Compound | inhibition of the increase in the number of leukocytes adhered to the mesenteric venules caused by I/R [1, 4] | inhibition of the increase in the number of leukocytes adhered to the mesenteric venules caused by I/R [1, 5] | inhibition of the emigration of leukocytes from the mesenteric venules after I/R [2, 4] | inhibition of the emigration of leukocytes from the mesenteric venules after I/R [2, 5] | inhibition of the production of peroxides in the mesenteric venular walls after I/R (DHR fluorescence) [3, 4] | inhibition of the production of peroxides in the mesenteric venular walls after I/R (DHR fluorescence) [3, 5]
1 | O=C(O)C(O)Cc1ccc(O)c(O)c1 (stereo not drawn) [DLA, 3,4-dihydroxyphenyl lactic acid] | had significant inhibitory effects; also recorded: has the same effects as those of the pre-administration | had significant inhibitory effects; also recorded: can inhibit | had significant inhibitory effects; also recorded: has the same effects as those of the pre-administration | had significant inhibitory effects; also recorded: can inhibit | had significant inhibitory effects; also recorded: has the same effects as those of the pre-administration | had significant inhibitory effects; also recorded: can inhibit
2 | CC(C)=CCC[C@](C)(O[C@@H]1O[C@H](CO)[C@@H](O)[C@H](O)[C@H]1O)[C@H]1CC[C@]2(C)[C@@H]1[C@H](O)C[C@@H]1[C@@]3(C)CC[C@H](O)C(C)(C)[C@@H]3[C@@H](O[C@@H]3O[C@H](CO)[C@@H](O)[C@H](O)[C@H]3O[C@@H]3OC[C@@H](O)[C@H](O)[C@H]3O)C[C@]12C [R1, Notoginsenoside R1] | had significant inhibitory effects; also recorded: can inhibit | had significant inhibitory effects; also recorded: can inhibit | had significant inhibitory effects; also recorded: can inhibit | had significant inhibitory effects; also recorded: can inhibit | had no significant inhibitory effects; also recorded: has no inhibitory effects | had no significant inhibitory effects; also recorded: has no inhibitory effects
